From the NIST ThermoML archive (doi:10.1016/j.fluid.2014.09.014)

Test: refractive index (other wavelength) (dimensionless); xn = mol fraction of the nth substance listed
Conditions: 101 kPa, Liquid, Standard Abbe refractometry

CC(C)OC(C)C [diisopropyl ether] + CC(C)O
refractive index
Conditions	Wavelength=404.7 nm	Wavelength=435.8 nm	Wavelength=486.1 nm	Wavelength=546.1 nm	Wavelength=587.6 nm	Wavelength=589.3 nm	Wavelength=632.8 nm	Wavelength=644 nm	Wavelength=706.5 nm
313.15 K, x1 = 0.0277	–	–	–	–	–	1.36835	1.36708	1.36678	1.36533
313.15 K, x1 = 0.0507	–	–	–	–	–	1.36828	1.367	1.3667	1.36524
313.15 K, x1 = 0.051	–	–	–	–	–	1.36822	1.36696	1.36665	1.3652
313.15 K, x1 = 0.0717	–	–	–	–	–	1.36787	1.36659	1.36629	1.36485
313.15 K, x1 = 0.1528	–	–	–	–	–	1.36718	1.3659	1.36561	1.36418
313.15 K, x1 = 0.1553	–	–	–	–	–	1.36718	1.3659	1.36561	1.36418
313.15 K, x1 = 0.1938	–	–	–	–	–	1.36694	1.36566	1.36537	1.36394
313.15 K, x1 = 0.2029	–	–	–	–	–	1.3664	1.36512	1.36482	1.36337
313.15 K, x1 = 0.245	–	–	–	–	–	1.36591	1.36465	1.36436	1.36294
313.15 K, x1 = 0.297	–	–	–	–	–	1.36507	1.36381	1.36351	1.36209
313.15 K, x1 = 0.2973	–	–	–	–	–	1.36529	1.36401	1.36372	1.3623
313.15 K, x1 = 0.3068	–	–	–	–	–	1.36504	1.36377	1.36347	1.36204
313.15 K, x1 = 0.398	–	–	–	–	–	1.3637	1.36244	1.36213	1.36071
313.15 K, x1 = 0.4609	–	–	–	–	–	1.36297	1.36172	1.36142	1.35999
313.15 K, x1 = 0.5434	–	–	–	–	1.36211	1.36206	1.36081	1.36051	1.35908
313.15 K, x1 = 0.6032	–	–	–	–	1.36136	1.3613	1.36007	1.35977	1.35834
313.15 K, x1 = 0.6371	–	–	–	–	1.36099	1.36094	1.3597	1.3594	1.358
313.15 K, x1 = 0.701	–	–	–	–	1.36025	1.36019	1.35895	1.35865	1.35723
313.15 K, x1 = 0.754	–	–	–	–	1.35981	1.35976	1.35851	1.35821	1.35681
313.15 K, x1 = 0.791	–	–	–	–	1.35941	1.35936	1.35812	1.35782	1.35641
313.15 K, x1 = 0.8296	–	–	–	–	1.35902	1.35897	1.35772	1.35742	1.35602
313.15 K, x1 = 0.8864	–	–	–	–	1.3589	1.35885	1.35758	1.35729	1.35589
313.15 K, x1 = 0.8903	–	–	–	–	1.35833	1.35827	1.35704	1.35674	1.35534
313.15 K, x1 = 0.9113	–	–	–	–	1.35809	1.35802	1.35679	1.3565	1.3551
313.15 K, x1 = 0.9547	–	–	–	–	1.35761	1.35756	1.35631	1.35601	1.3546
313.15 K, x1 = 0.973	–	–	–	–	1.35727	1.35722	1.35599	1.3557	1.35426
313.15 K, x1 = 0.9771	–	–	–	–	1.35715	1.3571	1.35587	1.35587	1.35416
313.15 K, x1 = 1	–	–	–	–	1.357	1.35694	1.35572	1.35543	1.35401
318.15 K, x1 = 0.0277	1.37668	1.37373	1.37036	1.36758	1.36611	1.36605	1.36479	1.36448	1.36305
318.15 K, x1 = 0.0507	1.37662	1.37367	1.3703	1.36752	1.36604	1.36598	1.36472	1.36443	1.363
318.15 K, x1 = 0.051	1.37654	1.3736	1.37024	1.36745	1.36598	1.36592	1.36464	1.36435	1.36292
318.15 K, x1 = 0.0717	1.37616	1.37322	1.36986	1.36708	1.36563	1.36557	1.36428	1.36398	1.36256
318.15 K, x1 = 0.1528	1.3755	1.37255	1.36919	1.36641	1.36495	1.36489	1.36364	1.36335	1.3619
318.15 K, x1 = 0.1553	1.3755	1.37255	1.36919	1.36641	1.36495	1.36489	1.36364	1.36335	1.3619
318.15 K, x1 = 0.1938	1.37525	1.37231	1.36894	1.36618	1.3647	1.36465	1.36338	1.36309	1.36166
318.15 K, x1 = 0.2029	1.37457	1.37164	1.36826	1.36546	1.36403	1.36398	1.36273	1.36243	1.361
318.15 K, x1 = 0.245	1.374	1.37107	1.36775	1.36498	1.36354	1.36348	1.36223	1.36194	1.36053
318.15 K, x1 = 0.297	1.37308	1.37014	1.36682	1.36402	1.36259	1.36254	1.36131	1.36101	1.35958
318.15 K, x1 = 0.2973	1.37334	1.3704	1.36706	1.36427	1.36283	1.36278	1.36153	1.36123	1.35982
318.15 K, x1 = 0.3068	1.37306	1.37013	1.36679	1.36402	1.3626	1.36255	1.36129	1.36098	1.35954
318.15 K, x1 = 0.398	1.37184	1.36891	1.36558	1.36283	1.36139	1.36134	1.36008	1.35978	1.35836
318.15 K, x1 = 0.4609	1.37087	1.36796	1.36464	1.36184	1.36044	1.36036	1.35912	1.35883	1.3574
318.15 K, x1 = 0.5434	1.36988	1.36693	1.36363	1.36086	1.35943	1.35938	1.35814	1.35784	1.35643
318.15 K, x1 = 0.6032	1.36911	1.36618	1.36282	1.36011	1.35865	1.3586	1.35735	1.35707	1.35568
318.15 K, x1 = 0.6371	1.36872	1.36578	1.36247	1.35971	1.35829	1.35824	1.35701	1.35671	1.35531
318.15 K, x1 = 0.701	1.36791	1.36501	1.36166	1.35892	1.35749	1.35743	1.35619	1.35591	1.35452
318.15 K, x1 = 0.754	1.36743	1.36453	1.36123	1.35847	1.35706	1.357	1.35577	1.35547	1.35407
318.15 K, x1 = 0.791	1.36699	1.36408	1.3608	1.35802	1.35663	1.35658	1.35537	1.35507	1.35364
318.15 K, x1 = 0.8296	1.36655	1.36364	1.36034	1.3576	1.35619	1.35614	1.35491	1.35461	1.3532
318.15 K, x1 = 0.8864	1.36644	1.36355	1.36022	1.35745	1.35605	1.35599	1.35478	1.35448	1.35309
318.15 K, x1 = 0.8903	1.36584	1.36294	1.35967	1.35689	1.35548	1.35543	1.35421	1.35391	1.35251
318.15 K, x1 = 0.9113	1.36554	1.36264	1.3594	1.35663	1.35521	1.35515	1.35395	1.35366	1.35225
318.15 K, x1 = 0.9547	1.3651	1.36222	1.35891	1.35618	1.35475	1.35469	1.35346	1.35317	1.3518
318.15 K, x1 = 0.973	1.3647	1.36182	1.35854	1.3558	1.35439	1.35433	1.35311	1.35281	1.35143
318.15 K, x1 = 0.9771	1.36468	1.36178	1.35849	1.35575	1.35433	1.35427	1.35304	1.35276	1.35139
318.15 K, x1 = 1	1.36447	1.36157	1.35832	1.35556	1.35416	1.35411	1.3529	1.35259	1.3512
